Measured values as given in patent publication US7872030B2, “Use of 2-[5-(4-fluorophenyl)-3-pyridylmethylaminomethyl]-chromane and its physiologically acceptable salts” (Merck Patent GmbH, priority 2001, dated 2011).

Key:
rats = assay: Induction of catalepsy in rats (extrapyramidal motor side effects); type: in vivo, rat; settings: doses up to 500fold higher compared to the doses effective in the animal models
Protocol: Extrapyramidal motor side effects in e.g. rodents are measured by the ability of a drug to induce catalepsy. Catalepsy is defined as a state where an animal continues to remain in an unnormal (nonphysiological ‘uncomfortable’) posture for a long time (e.g.: M. E. Stanley and S. D. Glick, Neuropharmacology, 1996; 15: 393-394; C. J. E. Niemegeers and P. Janssen, Life Sci., 1979, […]). For example, if a hindpaw of a rat is placed on an elevated level, e.g. a platform elevated 3 cm above ground level, a normal rat immediately withdraws the hindpaw from the platform to the ground level. A cataleptic rat remains in this unnatural posture even for minutes.

[1] = system: Parkinsonian cynomolgus monkey; assay: Adverse effects of chronic l-dopa therapy in MPTP Parkinsonian cynomolgus monkey; type: in vivo; settings: MPTP monkeys chronically treated with l-dopa
Protocol: Treatment of adverse effects of conventional anti-Parkinsonian drugs as defined above are determined in a modification of the animal model of the Parkinsonian cynomolgus monkey according to P. J. Blanchet et al., Exp. Neurology 1998; 153: 214-222. Monkeys render parkinsonian by repeated injections of 1-methyl-4-phenyl-1,2,3,6-tetrahydropyridine (MPTP). The Parkinsonian monkeys are chronically treated with the standard l-dopa therapy according to P. J. Blanchet et al., Mov. Disord., 1998; 13: 798-802. Longterm treatment with l-dopa induces extrapyramidal motor side effects and psychotic states which are both qualitatively and quantitatively, assessed by the Abnormal Involuntary Movement Scale (P. J. Blanchet et al., Mov. Disord. 1998; 13: 798-802) for different body parts (face, neck, trunk, each limb) and by rating for psychotic states by observing the monkey's attention, reactivity and mobility.

[2] = system: Parkinsonian cynomolgus monkey; assay: MPTP Parkinsonian cynomolgus monkey, Laval University Disability Scale; type: in vivo; settings: MPTP monkeys
From the text: A typical animal model for idiopathic Parkinson's disease is the Parkinsonian cynomolgus monkey according to P. J. Blanchet et al., Exp. Neurology 1998; 153: 214-222. Monkeys render parkinsonian by repeated injections of 1-methyl-4-phenyl-1,2,3,6-tetrahydropyridine (MPTP). Parkinsonian symptoms are qualitatively assessed by the use of the Laval University Disability Scale (B. Gomez-Mancilla et al., 1993; Mov. Disord. 8: 144-150) measuring the following symptoms: posture, mobility, climbing, gait, holding food, vocalizing, grooming, social interaction.

3-NP treated rats = assay: Systemic 3-nitropropionic acid (3-NP) model in rats; type: in vivo, rat; settings: for nocturnal akinesia (hypoactivity): after four injections of 3-NP (late Huntington's disease); for nocturnal hyperactivity: after two injections of 3-NP (early Huntington's disease)
From the text: A typical animal model is the systemic 3-nitropropionic acid (3-NP) model in rats according to C. V. Borlongan et al., Brain Res., 1995; 697: 254-257. […] After two injections of 3-NP, rats display nocturnal hyperactivity reflecting symptoms of early Huntington's disease, whereas rats treated with four injections of 3-NP display nocturnal akinesia (hypoactivity) reflecting symptoms of late Huntington's disease. Nocturnal activity is automatically measured in conventional acitivity cages by infrared beams.

[3] = system: patients with cervical dystonia (spasmodic torticollis); assay: Double-blind, placebo-controlled study in cervical dystonia (TWSTRS); type: in vivo, human; settings: 2.5 mg to 20 mg b.i.d.
[4] = system: rats challenged with haloperidol; assay: Neuroleptics-induced muscle rigidity in rats; settings: rat, in vivo
From the text: A typical animal model is neuroleptics-induced muscle rigidity in rats according to S. Wolfarth et al, Arch. Pharmacol. 1992; 345: 209-212. Rats are challenged with the conventional neuroleptic drug haloperidol which enhances muscle tone. Muscle tone is electromechanically measured as the resistence to passive flexion and extension of the hind limb.

Pietrain pig = assay: Campus Syndrome in the Pietrain pig (tremor); type: in vivo
From the text: Typical genetic models in mutant animals are the Campus Syndrome in the Pietrain pig according to A. Richter et al. (Exp. Neurology, 1995; 134: 205-213) or the Weaver mutant mouse according to J. R. Simon and B. Ghetti (Mol. Neurobiol., 1994; 9: 183-189). In the Campus Syndrome model, these mutant pigs show a high-frequency tremor when standing and during locomotion, but not while lying at rest. Assessment of tremor is made by accelerometric recording. In the Weaver mutant mouse, degenerative cerebellar atrophy is fould in association with tremor, gait instability, and toppling over the sides after a few steps.

[5] = system: rats after cardiac arrest; assay: Posthypoxic myoclonus in rats; settings: rat, in vivo
Protocol: A typical animal model for myoclonus is myoclonus induced by an acute hypoxic episode according to D. D. Truong et al., Mov. Dsiord., 1994; 9: 201-206). In this model of posthypoxic myoclonus, rats undergo a cardiac arrest for 8 minutes and are resuscitated thereafter. Myoclonic jerks occur spontaneously but can be provoked by auditory stimulation, too, worsening over the days following cardiac arrest.

| Compound | induction of catalepsy (rats) | overall choreiform dyskinesias and dystonic dyskinesias (Abnormal Involuntary Movement Scale) [1] | psychotic states (attention, reactivity, mobility rating) [1] | parkinsonian symptoms (Laval University Disability Scale) [2] | total activity [2] | nocturnal akinesia (hypoactivity) (3-NP treated rats) | nocturnal hyperactivity (3-NP treated rats) | TWSTRS scores [3] | muscle tone enhanced by haloperidol (resistance to passive flexion and extension of the hind limb) [4] | tremor when standing and during locomotion (Pietrain pig) | number of spontaneous and auditory-evoked myoclonic jerks [5] |
| --- | --- | --- | --- | --- | --- | --- | --- | --- | --- | --- | --- |
| Fc1ccc(-c2cncc(CNCC3CCc4ccccc4O3)c2)cc1 (racemic) [(R/S)-(−/+)-2-[5-(4-fluorophenyl)-3-pyridylmethylaminomethyl]-chromane] | do not induce any catalepsy | reduced | reduced | reduced all the parkinsonian symptoms | increased total activity | reduce | reduce | significant improvement | decrease the mucle tone enhanced by haloperidol | reduce disabling tremor | dose-dependently reduce the number of spontaneous and auditory-evoked myoclonic jerks |
| Fc1ccc(-c2cncc(CNC[C@@H]3CCc4ccccc4O3)c2)cc1 [(S)-(+)-2-[5-(4-fluorophenyl)-3-pyridylmethylaminomethyl]-chromane] | do not induce any catalepsy | reduced | reduced | reduced all the parkinsonian symptoms | increased total activity | reduce | reduce | significant improvement | decrease the mucle tone enhanced by haloperidol | reduce disabling tremor | dose-dependently reduce the number of spontaneous and auditory-evoked myoclonic jerks |
